These results are taken from ChEMBL document CHEMBL3244102, “Piperazinylpyrazines with central serotoninmimetic activity” (J Med Chem, 1978).

Data set [1] relates to Mus musculus. The data set can be described thus: Central serotoninmimetic activity in CF mouse assessed as induction of head twitches at 30 mg/kg, ip after 60 mins. It counts as functional, organism-based. Set-up: dose 30 mg/kg.
Data set [2] concerns Mus musculus. The data set can be described thus: Central serotoninmimetic activity in CF mouse assessed as induction of head twitches at 6 mg/kg, ip after 60 mins. Format: functional, organism-based. The arrangement: dose 6 mg/kg.
Data set [3] can be described thus: Peripheral serotoninmimetic activity in Charles River rat uterus assessed as uterine contraction measured as tension developed at 10 ug/ml relative to methacholine. Format: ADME, tissue-based.
Data set [4] can be described thus: Peripheral serotoninmimetic activity in Charles River rat uterus assessed as uterine contraction measured as tension developed at 10 ug/ml in presence of hydroxindasol. Format: ADME, tissue-based.
Data set [5] is described as follows: Peripheral serotoninmimetic activity in Charles River rat uterus assessed as uterine contraction measured as tension developed at 1 ug/ml relative to methacholine. Format: ADME, tissue-based.
Data set [6] can be described thus: Peripheral serotoninmimetic activity in Charles River rat uterus assessed as uterine contraction measured as tension developed at 5 ug/ml. It counts as ADME, tissue-based.
In data set [7] the test system is Mus musculus. In words: Central serotoninmimetic activity in CF mouse assessed as induction of head twitches at 10 mg/kg, ip after 30 to 60 mins in presence of methergoline. It counts as functional, organism-based. The arrangement: dose 10 mg/kg.
Data set [8] in a line: Peripheral serotoninmimetic activity in Charles River rat uterus assessed as uterine contraction measured as tension developed at 0.1 ug/ml. It counts as ADME, tissue-based.
Data set [9] relates to Mus musculus. The data set can be described thus: Central serotoninmimetic activity in CF mouse assessed as induction of head twitches at 10 mg/kg, ip after 30 to 60 mins in presence of cyproheptadine. Format: functional, organism-based. Set-up: dose 10 mg/kg.
The nature of data set [10]: Peripheral serotoninmimetic activity in Charles River rat uterus assessed as uterine contraction measured as tension developed at 1 ug/ml. Format: ADME, tissue-based.
The nature of data set [11]: Peripheral serotoninmimetic activity in Charles River rat uterus assessed as uterine contraction measured as tension developed at 0.5 ug/ml. It counts as ADME, tissue-based.
A short description of data set [12]: Peripheral serotoninmimetic activity in Charles River rat uterus assessed as uterine contraction measured as tension developed at 5 ug/ml relative to methacholine. It counts as ADME, tissue-based.
The subject of data set [13] is Mus musculus. In words: Central serotoninmimetic activity in CF mouse assessed as induction of head twitches at 60 mg/kg, ip after 30 mins in presence of xylamidine. Format: functional, organism-based. Set-up: dose 60 mg/kg.
A short description of data set [14]: Peripheral serotoninmimetic activity in Charles River rat uterus assessed as uterine contraction measured as tension developed at 0.5 ug/ml relative to methacholine. It counts as ADME, tissue-based.
Data set [15] in a line: Ratio of serotonin EC50 to compound EC50 for peripheral serotoninmimetic activity in Charles River rat uterus. Format: ADME, tissue-based.
A short description of data set [16]: Peripheral serotoninmimetic activity in Charles River rat uterus assessed as uterine contraction. Format: ADME, tissue-based.
The nature of data set [17]: Peripheral serotoninmimetic activity in Charles River rat uterus assessed as uterine contraction measured as tension developed at 20 ug/ml. It counts as ADME, tissue-based.
A short description of data set [18]: Peripheral serotoninmimetic activity in Charles River rat uterus assessed as uterine contraction measured as tension developed at 10 ug/ml. Format: ADME, tissue-based.
Data set [19] has as its system Mus musculus. In words: Central serotoninmimetic activity in CF mouse assessed as induction of head twitches at 10 mg/kg, ip after 30 mins in presence of xylamidine. The arrangement: dose 10 mg/kg. It counts as functional, organism-based.
Data set [20] in a line: Peripheral serotoninmimetic activity in Charles River rat uterus assessed as uterine contraction measured as tension developed at 10 ug/ml in presence of methylsergide. Format: ADME, tissue-based.
Data set [21] can be described thus: Peripheral serotoninmimetic activity in Charles River rat uterus assessed as uterine contraction measured as tension developed at 0.01 ug/ml relative to methacholine. Format: ADME, tissue-based.
Data set [22] can be described thus: Peripheral serotoninmimetic activity in Charles River rat uterus assessed as uterine contraction measured as tension developed at 0.05 ug/ml. Format: ADME, tissue-based.
Data set [23] is described as follows: Peripheral serotoninmimetic activity in Charles River rat uterus assessed as uterine contraction measured as tension developed at 0.01 ug/ml in presence of methylsergide. Format: ADME, tissue-based.
The nature of data set [24]: Peripheral serotoninmimetic activity in Charles River rat uterus assessed as uterine contraction measured as tension developed at 0.005 ug/ml. Format: ADME, tissue-based.
Data set [25] is described as follows: Peripheral serotoninmimetic activity in Charles River rat uterus assessed as uterine contraction measured as tension developed at 0.00050 ug/ml. Format: ADME, tissue-based.
The nature of data set [26]: Peripheral serotoninmimetic activity in Charles River rat uterus assessed as uterine contraction measured as tension developed at 0.005 ug/ml relative to methacholine. Format: ADME, tissue-based.
A short description of data set [27]: Peripheral serotoninmimetic activity in Charles River rat uterus assessed as uterine contraction measured as tension developed at 0.001 ug/ml relative to methacholine. Format: ADME, tissue-based.
A short description of data set [28]: Peripheral serotoninmimetic activity in Charles River rat uterus assessed as uterine contraction measured as tension developed at 0.01 ug/ml in presence of hydroxindasol. It counts as ADME, tissue-based.
Data set [29] is described as follows: Peripheral serotoninmimetic activity in Charles River rat uterus assessed as uterine contraction measured as tension developed at 0.001 ug/ml. Format: ADME, tissue-based.
Data set [30] in a line: Peripheral serotoninmimetic activity in Charles River rat uterus assessed as uterine contraction measured as tension developed at 0.01 ug/ml. It counts as ADME, tissue-based.
A short description of data set [31]: Peripheral serotoninmimetic activity in Charles River rat uterus assessed as uterine contraction measured as tension developed at 0.00075 ug/ml. It counts as ADME, tissue-based.
A short description of data set [32]: Peripheral serotoninmimetic activity in Charles River rat uterus assessed as uterine contraction measured as tension developed at 0.00050 ug/ml relative to methacholine. Format: ADME, tissue-based.
A short description of data set [33]: Peripheral serotoninmimetic activity in Charles River rat uterus assessed as uterine contraction measured as tension developed at 0.00075 ug/ml relative to methacholine. Format: ADME, tissue-based.

Molecules are shown by their SMILES. In brackets after ≈: the same amount, converted by molar mass. Activity calls are given as the source filed them. No cut-off for these calls is given here.

With `N#Cc1cncc(N2CCNCC2)n1`, the outcome in the data set on Mus musculus [1] and in the data set with Mus musculus [2] was inactive.

Turning to `CN(C)CCCN1CCN(c2cncc(Cl)n2)CC1`, the outcome with Mus musculus [1] and in the data set with Mus musculus [2] was inactive.

In the case of `CN(C)c1cncc(N2CCNCC2)n1`, the outcome with Mus musculus [1] and in the data set with Mus musculus [2] was inactive.

In the case of `Cc1nccnc1N1CCNCC1`, the outcome in the data set with Mus musculus [1] and in the data set on Mus musculus [2] was inactive.

Turning to `O=C1CN(c2cncc(Cl)n2)CCN1`, the result in the data set with Mus musculus [1] and in the data set with Mus musculus [2] was inactive.

Turning to `COC(=O)c1nc(Cl)c(N2CCNCC2)nc1N`, the outcome in the data set with Mus musculus [1] was inactive.

For `Cc1cnc(C)c(N2CCNCC2)n1`, the outcome in the data set on Mus musculus [2] was inactive.

Consider `Clc1nccnc1N1CCNCC1`, for which the result in the data set on Mus musculus [1] and with Mus musculus [2] was inactive.

With `Cc1cncc(N2CCNCC2)n1`, the result in the data set on Mus musculus [1] and with Mus musculus [2] was Active.

Take `Cl.Clc1cncc(N2CCNCC2)n1`: the Emax in data set [3] is 86%; in data set [5] it was 15%; in data set [12], 80%; in data set [14] it was 10%. Besides, the result in the data set with Mus musculus [1], in the data set with Mus musculus [2] and in the data set with Mus musculus [19] was Active. Also, the Activity result in [4] is “Non-toxic”; in data set [6] it was 2.12 g; in data set [8], 0 g; in data set [10], 0.4 g; in data set [11] it was 0.27 g; in [17], 2.42 g. Also, the Activity in data set [18] is 2.28 g; in data set [20] it was “Non-toxic”. Further, the outcome in the data set on Mus musculus [7], in the data set on Mus musculus [9] and in the data set with Mus musculus [13] was inactive. Further, in data set [15], the “Ratio EC50” value is given as 300. Also, the EC50 in data set [16] turned out to be 2.411 µg/mL.

Turning to `c1ccc2nc(N3CCNCC3)ccc2c1`, the outcome in the data set on Mus musculus [1] and in the data set with Mus musculus [2] was inactive.

For the molecule `Clc1cncc(N2CCN(c3cncc(Cl)n3)CC2)n1`, the outcome in the data set on Mus musculus [2] was inactive.

Turning to `c1ccc(-c2cnc(N3CCNCC3)cn2)cc1`, the result in the data set with Mus musculus [1] and in the data set on Mus musculus [2] was inactive.

For the molecule `CS(=O)(=O)c1cncc(N2CCNCC2)n1`, in the data set on Mus musculus [2], the outcome was inactive.

As for `c1cnc(N2CCNCC2)cn1`, the outcome in the data set with Mus musculus [2] was inactive.

With `CC(=O)OC(C)C[N+](C)(C)C` (stereo unspecified) [METHACHOLINE], the Activity in [10] came out at 2.65 g.

For the molecule `NCCc1c[nH]c2ccc(O)cc12` [SEROTONIN], the maximum response (Emax) worked out at 92% in [21]; 80% in data set [26]; 70% in [27]; 7% in [32]; 37% in [33]. Besides, the Activity in data set [22] is 3.18 g; in data set [23], “Non-toxic”; in [24], 2.67 g; in [25], 0.22 g; in data set [8], 3.2 g; in data set [28], “Non-toxic”. Also, the Activity in [29] is given as 2.32 g; in data set [30], 3.08 g; in data set [31], 1.23 g. In [16], the 50% effective concentration (EC50) turned out to be 0.0083 µg/mL (≈ 0.0471 µM).

On to `c1ccc(-c2cncc(N3CCNCC3)n2)cc1`, for which the result with Mus musculus [1] was inactive.

On to `Clc1cnc(N2CCNCC2)cn1`, for which the result with Mus musculus [2] was inactive.
